# Assay results published in patent publication US20110053897A1 (IRM LLC, priority 2009, published 2011).
# Target: T1, Syk kinase (Homo sapiens, UniProt P43405)
# T1 construct: purchased
# Experiment: Syk kinase inhibition, Caliper LabChip off-chip mobility-shift kinase assay
# Format: biochemical
# Conditions: Caliper LabChip assay; read-out: Syk Enzyme IC50
# Outline: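 Purified Syk pre-incubated 15 min with compound in 100 mM HEPES pH 7.5, 1 mM DTT, 10 mM MgCl2 or MnCl2, 0.002% Brij-35, then 1.5 μM fluorescein peptide and ATP at apparent KM added; 1–1.5 h at room temperature, 4% DMSO, EDTA stop. Microfluidic mobility-shift product/substrate conversion gave % inhibition; IC50 from 12-point series (10–0.00003 μM) by 4-parameter fit.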
row,IC50 [nM],SMILES
1,301,CC(C)(C)Nc1nc(Nc2cnccn2)cc2ccn(Cc3ccncc3)c(=O)c12 [compound 1019]
2,126,CCn1ccc2cc(Nc3cc(C)ccn3)nc(Nc3ccc(C(=O)NCCO)cc3)c2c1=O [compound 834]
3,376,CCn1ccc2cc(Nc3cnccn3)nc(NC3CC=C(C)CC3)c2c1=O (centres unmarked) [compound 955]
4,390,Cc1ccnc(Nc2cc3ccn(CCO)c(=O)c3c(NCC(C)(C)C)n2)c1 [compound 814]
5,20,CC1(Nc2nc(-c3cnc(N)nc3)cc3ccn(CCO)c(=O)c23)CC1 [compound 1036]
6,144,Cn1cc(Cl)c2cc(Nc3cnccn3)nc(N[C@H]3CC[C@@H](O)CC3)c2c1=O [compound 785]
7,51,[2H]C([2H])([2H])n1ccc2cc(Nc3cc(C)ccn3)nc(N[C@H]3CC[C@H](O)CC3)c2c1=O [compound 983]
8,679,CC(O)c1ccnc(Nc2cc3ccn(CCO)c(=O)c3c(NC(C)(C)C)n2)n1 (centres unmarked) [compound 715]
9,568,CCn1ccc2cc(Nc3cc(C)ccn3)nc(N[C@H](CO)C(C)(C)C)c2c1=O [compound 806]
10,136,CC(C)Nc1nc(-c2cnc(N)nc2)cc2ccn(CCO)c(=O)c12 [compound 892]
11,18,CCn1ccc2cc(Nc3cnccn3)nc(N[C@H]3CC[C@@H](CO)C3)c2c1=O [compound 793]
12,756,CC(C)(C)Nc1nc(Nc2cc(C3CCCCO3)ncn2)cc2ccn(CCO)c(=O)c12 (centres unmarked) [compound 626]
13,67,"CC(C)(C)Nc1nc(Nc2cc(-c3ccn[nH]3)ccn2)cc2ccn(CCO)c(=O)c12 [compound 690, 6-(4-(1H-pyrazol-5-yl)pyridin-2-ylamino)-8-(tert-butylamino)-2-(2-hydroxyethyl)-2,7-naphthyridin-1(2H)-one]"
14,18,CC(C)(C)Nc1nc(Nc2cc(C(C)(C)O)c(F)cn2)cc2ccn(CCO)c(=O)c12 [compound 717]
15,3,C[C@@H](O)c1ccnc(Nc2cc3ccn(CCO)c(=O)c3c(NC(C)(C)C)n2)c1 [compound 713]
16,12,[2H][C@]1(O)CC[C@@H](Nc2nc(Nc3cnccn3)cc3ccn(CC)c(=O)c23)CC1 [compound 992]
17,34,N#CCn1ccc2cc(-c3cnc(N)nc3)nc(NC3CCOCC3)c2c1=O [compound 742]
18,17,CC(C)(C)Nc1nc(-c2cnc(N)nc2)cc2ccn(CCO)c(=O)c12 [compound 899]
19,48,CC(C)(C)Nc1nc(Nc2cc(OCC3CCOC3)ncn2)cc2ccn(CC(O)CO)c(=O)c12 (centres unmarked) [compound 887]
20,32,CC(C)n1ccc2cc(-c3cnc(N)nc3)nc(N[C@H]3CC[C@@H](O)CC3)c2c1=O [compound 1027]
21,36,Nc1ncc(-c2cc3ccn(C4COC4)c(=O)c3c(NC3CCOCC3)n2)cn1 [compound 770]
22,12,CCn1ccc2cc(Nc3cnccn3)nc(N[C@H]3CC[C@H](CO)C3)c2c1=O [compound 827]
23,766,CC(C)(C)Nc1nc(Nc2cc(N3CCCC(CO)C3)ccn2)cc2ccn(CCO)c(=O)c12 (centres unmarked) [compound 845]

# Same assay, conditions: read-out: Syk Enzyme IC50
row,SMILES,IC50 [nM]
1,CCn1ccc2cc(Nc3cc(Cl)ccn3)nc(NC(C)C)c2c1=O [compound 305],257
2,CCn1ccc2cc(Nc3cnc(C)cn3)nc(N[C@H]3CC[C@@H](O)CC3)c2c1=O [compound 392],193
3,Cn1ccc2cc(-c3cnc(N)nc3)nc(NCCN3CCOCC3)c2c1=O [compound 36],428
4,Cc1ccc(-c2cc3cc[nH]c(=O)c3c(Nc3cnn(CCN4CCOCC4)c3)n2)cn1 [compound 126],100
5,Cc1nc(-c2cc3cc[nH]c(=O)c3c(Nc3ccc(N4C[C@@H](C)O[C@@H](C)C4)nc3)n2)cnc1N [compound 19],222
6,COc1cncc(-c2cc3cc[nH]c(=O)c3c(Nc3ccc(C4CN(CCO)C4)cc3)n2)n1 [compound 147],4
7,Cc1ccnc(Nc2cc3ccn(C)c(=O)c3c(NC3CC3)n2)c1 [compound 534],129
8,COc1cncc(-c2cc3cc[nH]c(=O)c3c(Nc3ccc(C4CCN(C(C)C)CC4)c(C)c3)n2)n1 [compound 165],3
9,Cc1ccnc(Nc2cc3cc[nH]c(=O)c3c(N[C@H]3CCOC3)n2)c1 [compound 302],83
10,CCc1ccnc(Nc2cc3ccn(CC)c(=O)c3c(NC(C)C)n2)c1 [compound 304],384
11,CCCN1CCC(c2ccc(Nc3nc(-c4cncc(OC)n4)cc4cc[nH]c(=O)c34)cc2C)CC1 [compound 55],33
12,CCOCCc1cc2cc[nH]c(=O)c2c(Nc2ccc(C3CCN(C4CC4)CC3)c(C)c2)n1 [compound 227],398
13,COc1cncc(-c2cc3cc[nH]c(=O)c3c(Nc3ccc(C4CCN(CCS(C)(=O)=O)CC4)c(C)c3)n2)n1 [compound 132],115
14,Cn1ccc2cc(Nc3cnccn3)nc(Nc3ccc(S(C)(=O)=O)cc3)c2c1=O [compound 336],584
15,Cn1ccc2cc(Nc3cnccn3)nc(Nc3ccc(C(N)=O)cc3)c2c1=O [compound 468],101
16,Cc1cc(Nc2nc(Nc3ccc(C(N)=O)cn3)cc3cc[nH]c(=O)c23)ccc1C1CCN(C2CC2)CC1 [compound 251],58
17,COc1nc(-c2cc3cc[nH]c(=O)c3c(Nc3ccc(C4CCN(CCC#N)CC4)cc3)n2)cnc1N [compound 154],20
18,O=c1[nH]ccc2cc(-c3cncnc3)nc(Nc3ccc(CCn4cncn4)cc3)c12 [compound 34],180
19,COc1cncc(-c2cc3cc[nH]c(=O)c3c(Nc3ccc(C4CCN(CC(=O)N5CCCC5)CC4)c(C)c3)n2)n1 [compound 156],41
20,CN(C)Cc1n[nH]c2cc(Nc3nc(-c4cncc(C(=O)N5CCOCC5)c4)cc4cc[nH]c(=O)c34)ccc12 [compound 205],104
21,Cc1ccnc(Nc2cc3cc[nH]c(=O)c3c(NCC(C)C)n2)c1 [compound 282],500
22,O=c1[nH]ccc2cc(-c3cncc(NC4CC4)n3)nc(Nc3ccc(N4CCOCC4)cc3)c12 [compound 48],83
23,[2H]C([2H])([2H])n1ccc2cc(Nc3cc(Cl)ccn3)nc(NC(C)(C)C)c2c1=O [compound 542],830
24,O=c1[nH]ccc2cc(CCO)nc(Nc3ccc(N4CCOCC4)cc3)c12 [compound 244],31
25,CNC(=O)C(C)(C)c1ccc(Nc2nc(-c3cnc4nccn4c3)cc3cc[nH]c(=O)c23)cc1 [compound 29],30
26,CCOCCOc1cccc(Nc2nc(Nc3cc(C)ccn3)cc3ccn(C)c(=O)c23)c1 [compound 335],1610
27,CNC(=O)C(C)N1CCC(c2ccc(Nc3nc(-c4cncc(OC)n4)cc4cc[nH]c(=O)c34)cc2C)CC1 (centres unmarked) [compound 173],11
28,CCN(CC)CCNC(=O)c1ccc(Nc2nc(Nc3cnccn3)cc3ccn(C)c(=O)c23)cc1 [compound 338],1620
29,COc1cncc(-c2cc3cc[nH]c(=O)c3c(Nc3ccc(C4=CCNCC4)c(C)c3)n2)n1 [compound 13],38
30,COc1nc(-c2cc3cc[nH]c(=O)c3c(Nc3ccc(C4CCN(CCC#N)CC4)c(C)c3)n2)cnc1N [compound 169],29

# The remaining lines, values ahead:
row,IC50 [nM],SMILES
1,87.9,CC(C)Nc1nc(Nc2cc(-c3cnn(C)c3)ccn2)cc2cc[nH]c(=O)c12 [compound 595]
2,415,[2H]C([2H])([2H])n1ccc2cc(Nc3cc(C)c(F)cn3)nc(NC3CC3)c2c1=O [compound 547]
3,88,CCc1ccnc(Nc2cc3cc[nH]c(=O)c3c(Nc3ccc(CCN4CCN(CC)CC4)cc3)n2)c1 [compound 546]
